We go through 24 compounds from patent US20240425491A1, “HETEROARYL COMPOUNDS USEFUL IN THE TREATMENT OF COGNITIVE DISORDERS” (University College Cardiff Consultants Limited, priority 2021, published 2024).

One may read the Ki as a measure of affinity in units of concentration, obtained from inhibition or displacement.

Structures can show the parent of a compound that is named as a salt.

The target in the experiment is T1, human recombinant GABAAR containing α5β3γ2 subunits (benzodiazepine site) (Homo sapiens, UniProt P18507+P31644).
T1 construct: expressed in transfected cells; host or cells: mouse L(tk−) cells, dexamethasone-inducible vector pMSGneo
T1 sequence (P31644 32-462): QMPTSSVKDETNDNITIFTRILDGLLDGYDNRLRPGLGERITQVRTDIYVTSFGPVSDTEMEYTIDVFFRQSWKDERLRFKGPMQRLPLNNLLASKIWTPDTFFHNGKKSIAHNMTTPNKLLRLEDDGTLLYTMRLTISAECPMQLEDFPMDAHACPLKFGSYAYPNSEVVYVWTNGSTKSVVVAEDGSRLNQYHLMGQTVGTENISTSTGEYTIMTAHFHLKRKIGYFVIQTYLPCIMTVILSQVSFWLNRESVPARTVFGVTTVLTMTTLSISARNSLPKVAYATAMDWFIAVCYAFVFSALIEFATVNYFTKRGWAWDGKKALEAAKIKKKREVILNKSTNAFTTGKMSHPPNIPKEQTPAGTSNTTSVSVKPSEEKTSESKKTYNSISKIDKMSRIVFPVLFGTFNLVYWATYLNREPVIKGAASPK
T1 sequence (P28472 26-473 partner): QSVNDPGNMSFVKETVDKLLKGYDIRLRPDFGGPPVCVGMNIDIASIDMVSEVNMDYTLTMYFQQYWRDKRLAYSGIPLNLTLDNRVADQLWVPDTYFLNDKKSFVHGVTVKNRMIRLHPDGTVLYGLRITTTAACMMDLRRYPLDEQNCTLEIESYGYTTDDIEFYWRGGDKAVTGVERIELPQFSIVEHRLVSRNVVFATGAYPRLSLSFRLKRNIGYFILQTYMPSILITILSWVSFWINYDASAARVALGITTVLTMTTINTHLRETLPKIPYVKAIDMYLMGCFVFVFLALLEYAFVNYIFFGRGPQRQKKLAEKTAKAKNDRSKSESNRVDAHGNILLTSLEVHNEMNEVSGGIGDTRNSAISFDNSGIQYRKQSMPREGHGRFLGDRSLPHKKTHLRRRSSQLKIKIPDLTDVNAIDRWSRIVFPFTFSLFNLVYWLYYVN
T1 sequence (P18507 40-475): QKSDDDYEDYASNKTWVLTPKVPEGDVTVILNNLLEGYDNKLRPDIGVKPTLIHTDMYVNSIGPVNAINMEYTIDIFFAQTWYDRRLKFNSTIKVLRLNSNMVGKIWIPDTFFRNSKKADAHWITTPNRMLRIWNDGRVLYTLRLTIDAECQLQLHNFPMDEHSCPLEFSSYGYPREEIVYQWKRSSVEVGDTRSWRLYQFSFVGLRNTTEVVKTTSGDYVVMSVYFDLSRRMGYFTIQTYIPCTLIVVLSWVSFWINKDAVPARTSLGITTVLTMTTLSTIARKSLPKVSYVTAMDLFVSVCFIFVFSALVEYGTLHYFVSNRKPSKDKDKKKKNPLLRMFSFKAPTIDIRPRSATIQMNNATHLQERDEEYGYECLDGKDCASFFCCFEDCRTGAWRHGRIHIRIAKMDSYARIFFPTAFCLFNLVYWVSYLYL
Nature of the experiment: In vitro radioligand binding assay (α5-GABAAR Ki). As to conditions: inhibition of [3H]Ro15-1788 binding, membranes of L(tk−) cells expressing human α5β3γ2; read-out: α5-GABAAR Ki. The source says: Mouse L(tk^−) cells stably expressing human α1β3γ2, α2β3γ2, α3β3γ2, α5β3γ2 GABAARs generated by transfection of the individual subunits in the dexamethasone-inducible expression vector pMSGneo in mouse L(tk^−) cells (Hadingham et al., 1993, Mol. Pharmacol. 43:970-975 and 1993, Mol. Pharmacol. 44:1211-1218) were used for binding and functional assays. For certain compounds, HEK293 cells stable expressing the human α1β3γ2L, α2β3γ2L, α3β3γ2L and α5β3γ2L GABAA receptors were used to evaluate their functional effects in a SyncroPatch electrophysiology assay.
L(tk^−) cells stably expressing human α1β3γ2, α2β3γ2, α3β3γ2, α5β3γ2 GABAARs were maintained in DMEM F12 medium supplemented with 10% Foetal Bovine Serum, 1% Penicillin/Streptomycin and 1 mg/mL Geneticin G418 in an incubator at 37° C. with a humidified atmosphere with 5% CO2.
The affinity (Ki) of compounds for the benzodiazepine site of human recombinant GABAARs was measured by their ability to inhibit the binding of the selective benzodiazepine antagonist [^3H] Ro15-1788 ([^3H] flumazenil).
L(tk^−) cells expressing human recombinant GABAAR containing α1β3γ2, α2β3γ2, α3β3γ2, α5β3γ2 subunits were harvested and membranes were prepared for each receptor combination in phosphate buffer (K2PO4 10 mM, pH 7.0) (Hadingham et al. (1992) Proc. Natl. Acad. Sci. USA; 89 (14): 6378-82). Protein concentration, receptor expression and the Kd of [^3H] Ro15-1788 were determined before Ki values of compounds were evaluated. For Kd evaluation, saturation binding curves were obtained by incubating membrane with various concentrations of [^3H] Ro15-1788 (82.5 Ci/mM), with nonspecific binding measured in the presence of 1 μM TP003.
For Ki evaluation, cell membranes were incubated with 4 nM [^3H] Ro15-1788 along with a range of concentrations of test compound. Nonspecific binding was determined using 1 μM TP003. All incubations were performed for 1 hour at 4° C. in assay buffer. The total assay volume was 0.5 mL, containing 100 μg membrane protein/well α1β3γ2, α2β3γ2, α3β3γ2 and 50 μg membrane protein/well for α53γ2. Incubations were terminated by filtration and washing with ice cold Tris-HCl buffer (50 mM, pH=7.4) over Whatman GF/B filters and the radioactivity of the filters was measured using liquid scintillation counting.
The % inhibition of [^3H] Ro15-1788 binding was plotted as a function of compound concentration and the IC50 calculated. From the IC50, the affinity (Ki) was calculated using the method of Cheng and Prusoff using the Kd values obtained for [^3H] Ro15-1788.
For `COc1nc(-c2cnccn2)ccc1NC(=O)c1c(-c2ccccc2)noc1C` [Example 113, N-(2-Methoxy-6-(pyrazin-2-yl)pyridin-3-yl)-5-methyl-3-phenylisoxazole-4-carboxamide], the Ki is 41.7 nM.

`COc1nc(-c2cnc3c(c2)CC(=O)N3)ccc1NC(=O)c1c(-c2ccccc2)noc1C` [Example 114, N-(2-Methoxy-6-(2-oxo-2,3-dihydro-1H-pyrrolo[2,3-b]pyridin-5-yl)pyridin-3-yl)-5-methyl-3-phenylisoxazole-4-carboxamide]: the Ki is 6.3 nM.

Turning to `COc1nc(-c2cn(-c3nccs3)nc2C)ccc1NC(=O)c1c(-c2ccccc2)noc1C` [Example 115, N-(2-Methoxy-6-(3-methyl-1-(thiazol-2-yl)-1H-pyrazol-4-yl)pyridin-3-yl)-5-methyl-3-phenylisoxazole-4-carboxamide], the Ki came to 99.8 nM.

Regarding `COc1nc(-c2c[nH]c(=O)c(F)c2)ccc1NC(=O)c1c(-c2ccccc2)noc1C` [Example 116, N-(5′-Fluoro-6-methoxy-6′-oxo-1′,6′-dihydro-[2,3′-bipyridin]-5-yl)-5-methyl-3-phenylisoxazole-4-carboxamide], the Ki was 2.9 nM.

As for `COc1nc(-c2ccc3c(=O)[nH]ncc3c2)ccc1NC(=O)c1c(-c2ccccc2)noc1C` [Example 117, N-(2-Methoxy-6-(1-oxo-1,2-dihydrophthalazin-6-yl)pyridin-3-yl)-5-methyl-3-phenylisoxazole-4-carboxamide], the Ki is 2.6 nM.

In the case of `COc1nc(-c2cnc3[nH]ccc3c2)ccc1NC(=O)c1c(-c2ccccc2)noc1C` [Example 118, N-(2-Methoxy-6-(1H-pyrrolo[2,3-b]pyridin-5-yl)pyridin-3-yl)-5-methyl-3-phenylisoxazole-4-carboxamide], the Ki is 137 nM.

As to `COc1nc(-c2nn[nH]n2)ccc1NC(=O)c1c(-c2ccccc2)noc1C` [Example 122, N-[2-Methoxy-6-(2H-tetrazol-5-yl)-3-pyridyl]-5-methyl-3-phenyl-isoxazole-4-carboxamide], the Ki is 126 nM.

`CCOC(=O)Cn1c(-c2ccc(NC(=O)c3c(-c4ccccc4)noc3C)c(OC)n2)cnc1C` [Example 134, Ethyl 2-[5-[6-methoxy-5-[(5-methyl-3-phenyl-isoxazole-4-carbonyl)amino]-2-pyridyl]-2-methyl-imidazol-1-yl] acetate]: the Ki is 51.9 nM.

Turning to `COc1nc(-n2ccnc2)ccc1NC(=O)c1c(-c2ccccn2)noc1C` [Example 146, N-(6-Imidazol-1-yl-2-methoxy-3-pyridyl)-5-methyl-3-(2-pyridyl) isoxazole-4-carboxamide], the Ki is 79 nM.

Turning to `COc1nc(-c2cncnc2)ccc1NC(=O)c1c(C)nnn1-c1ccccc1` [Example 157, N-(2-Methoxy-6-(pyrimidin-5-yl)pyridin-3-yl)-4-methyl-1-phenyl-1H-1,2,3-triazole-5-carboxamide], the Ki was 45.8 nM.

Regarding `COc1nc(-c2cncc(OC(F)F)c2)cnc1NC(=O)c1c(-c2ccccc2)noc1C` [Example 158, N-[5-[5-(Difluoromethoxy)-3-pyridyl]-3-methoxy-pyrazin-2-yl]-5-methyl-3-phenyl-isoxazole-4-carboxamide], the Ki amounted to 8.4 nM.

`CNc1nc(-n2ccnc2)ccc1NC(=O)c1c(-c2ccccc2)noc1C` [Example 177, N-(6-(1H-Imidazol-1-yl)-2-(methylamino)pyridin-3-yl)-5-methyl-3-phenylisoxazole-4-carboxamide]: the Ki is 545 nM.

Consider `COc1nc(-c2ccc(CN)cc2)ccc1NC(=O)c1c(-c2ccccc2)noc1C` [Example 182, N-[6-[4-(Aminomethyl)phenyl]-2-methoxy-3-pyridyl]-5-methyl-3-phenyl-isoxazole-4-carboxamide hydrochloride], for which the Ki worked out at 8.8 nM.

Consider `COc1ncc(-c2ccc(NC(=O)c3c(-c4ccccc4)noc3C)c(OC)n2)c(C)n1` [Example 191, N-[2-Methoxy-6-(2-methoxy-4-methyl-pyrimidin-5-yl)-3-pyridyl]-5-methyl-3-phenyl-isoxazole-4-carboxamide], for which the Ki worked out at 1.3 nM.

As to `CNc1ncc(-c2ccc(NC(=O)c3c(-c4ccccc4)noc3C)c(OC)n2)c(C)n1` [Example 192, N-[2-Methoxy-6-[4-methyl-2-(methylamino)pyrimidin-5-yl]-3-pyridyl]-5-methyl-3-phenyl-isoxazole-4-carboxamide], the Ki is 1.2 nM.

With `COc1nc(C)c(-c2ccc(NC(=O)c3c(-c4ccccc4)noc3C)c(OC)n2)c(C)n1` [Example 193, N-[2-Methoxy-6-(2-methoxy-4,6-dimethyl-pyrimidin-5-yl)-3-pyridyl]-5-methyl-3-phenyl-isoxazole-4-carboxamide], the Ki came out at 22.9 nM.

In the case of `CNc1nc(C)c(-c2ccc(NC(=O)c3c(-c4ccccc4)noc3C)c(OC)n2)c(C)n1` [Example 194, N-(6-(4,6-Dimethyl-2-(methylamino)pyrimidin-5-yl)-2-methoxypyridin-3-yl)-5-methyl-3-phenylisoxazole-4-carboxamide], the Ki was 38.7 nM.

Turning to `COc1nc(-c2nnc3n2CCN(C)C3)ccc1NC(=O)c1c(-c2ccccc2)noc1C` [Example 195, N-(2-Methoxy-6-(7-methyl-5,6,7,8-tetrahydro-[1,2,4]triazolo[4,3-a]pyrazin-3-yl)pyridin-3-yl)-5-methyl-3-phenylisoxazole-4-carboxamide], the Ki came out at 23.5 nM.

With `COc1cc(-c2cnc(N)nc2)ccc1NC(=O)c1c(-c2ccccc2)noc1C` [Example 197, N-[4-(2-Aminopyrimidin-5-yl)-2-methoxy-phenyl]-5-methyl-3-phenyl-isoxazole-4-carboxamide hydrochloride], the Ki was 0.4 nM.

`COc1cc(-c2cnc(N)cn2)ccc1NC(=O)c1c(-c2ccccc2)noc1C` [Example 198, N-[4-(5-Aminopyrazin-2-yl)-2-methoxy-phenyl]-5-methyl-3-phenyl-isoxazole-4-carboxamide hydrochloride]: the Ki is 4.3 nM.

Turning to `COc1nc(-c2cnc(C(C)(C)O)nc2)ccc1NC(=O)c1c(-c2ccccc2)noc1C` [Example 201, N-[6-[2-(1-Hydroxy-1-methyl-ethyl)pyrimidin-5-yl]-2-methoxy-3-pyridyl]-5-methyl-3-phenyl-isoxazole-4-carboxamide], the Ki is 35.4 nM.

Turning to `COc1nc(-c2cnc(CN)nc2)ccc1NC(=O)c1c(-c2ccccn2)nnn1C` [Example 202, N-(6-(2-(Aminomethyl)pyrimidin-5-yl)-2-methoxypyridin-3-yl)-1-methyl-4-(pyridin-2-yl)-1H-1,2,3-triazole-5-carboxamide hydrochloride], the Ki came to 77.8 nM.

Consider `COc1nc(-c2cnc(CN)nc2)ccc1NC(=O)c1c(-c2ccc(Cl)cn2)nnn1C` [Example 203, N-(6-(2-(Aminomethyl)pyrimidine-5-yl)-2-methoxypyridin-3-yl)-4-(5-chloropyridin-2-yl)-1-methyl-1H-1,2,3-triazole-5-carboxamide hydrochloride], for which the Ki stood at 17 nM.

`COc1nc(-c2cnoc2)ccc1NC(=O)c1c(-c2ccc(F)cc2)noc1N1CCC1` [Example 210, 5-(Azetidin-1-yl)-3-(4-fluorophenyl)-N-(6-isoxazol-4-yl-2-methoxy-3-pyridyl) isoxazole-4-carboxamide]: the Ki turned out to be 13.7 nM.
